Results taken from patent US12599592B2, “Therapeutic small molecules for treatment of pulmonary hypertension” (UNIVERSITY OF PITTSBURGH—OF THE COMMONWEALTH SYSTEM OF …, priority 2020, dated 2026).

How the values were obtained:
PAECs = test: Global transcriptome microarray in PAECs; assay type: cell-based, human; conditions: transcriptional array, hypoxia +/- BRD2889
Source text: The gene expression was normalized with Robust Multiarray Analysis (RMA). For BRD2889, the same approach was employed using Affymetrix Clariom S array on RNA isolated from PAECs treated with BRD2889 or vehicle and subjected to either hypoxia or normoxia. Differentially expressed genes were defined as any gene for which the FDR adjusted p-value was below 0.05 (n=3/grp). Reversed genes were further defined as those genes that were differentially expressed in both (hypoxia versus normoxia) and in (hypoxia+BRD2889 versus hypoxia)+vehicle as well as were regulated in opposite directions. Similarly, for I-BET that were differentially expressed in IL-1β+VC versus control and IL-1β+I-BET versus IL-1β+VC and were regulated in opposite directions. The data for both I-BET and BRD2889 have been submitted to the NCBI Gene Expression Omnibus with accession numbers GSE125508 and GSE160255, respectively.

[1] = system: SU5416-hypoxic pulmonary arterial hypertension rats; test: SU5416-hypoxia pulmonary arterial hypertension rat model; assay type: in vivo, Sprague-Dawley rats
Method: Briefly, 10 week old male Sprague-Dawley rats were injected i.p. with 20 mg/kg of SU5416 (Sigma), placed in normobaric hypoxia (10% O2) for 3 weeks and then transferred to normoxia for 2 weeks. During hypoxic exposure, chambers were opened twice a week for cleaning and replenishment of food and water. […] For BRD2889 vs. vehicle control dosing, i.p. injections every 5 days (5 mg/kg) were administered during the final two weeks of normoxia. Oxygen concentrations were continuously monitored with blood gas analyzers.
(§1) Following euthanasia, right ventricle/[left ventricle+septum]
Measurement of GST activity: The GST activity from lung tissue and PAECs was assayed using GST assay kit (Cayman, MI, USA) per the manufacturer's instructions.
(§2) Rodent echocardiography: Echocardiography was performed using a 15-45 MHz transthoracic transducer and a Visual Sonics Vevo 3100 system (Fujifilm). Inhaled isoflurane anesthesia was used at 2% in 100% O2 during positioning and hair removal and then decreased to isoflurane 0.8% during imaging.

hypoxic IL-6 Tg mice = test: Hypoxic IL-6 transgenic pulmonary arterial hypertension mouse model; assay type: in vivo, IL-6 transgenic C57BL/6 mice
Method: as §1
Pulmonary-specific IL-6 transgenic mice (C57BL/6 background) were described previously (Steiner M K et al. Circ Res. 2009, 104, 236-244, 228p following 244). These mice were bred in house, and 12 week old male transgenic mice vs. control littermates were compared. Mice were injected i.p. every 3 days with vehicle control (2.5% DMSO) vs. BRD2889 (5 mg/kg vs. 10 mg/kg), followed by exposure to normobaric hypoxia (10% O2; OxyCycler chamber, Biospherix Ltd, Redfield, NY) for 14 days, as described (Steiner M K et al. Circ Res. 2009, 104, 236-244, 228p following 244).
as §2

ISCU [2] = test: Immunoblot of ISCU and GSTP1 in PAECs; assay type: cell-based, human
Method: For hypoxia exposure, cells were plated in 6-well cell culture plates at 1×10^5 cells/well, grown for 24 hr and placed into a normobaric hypoxia chamber (1% O2) for 24 h under specific treatment conditions. Namely, for I-BET and siLGALS8 exposures, cells were either pre-treated with I-BET/vehicle control (VC) or transfected with siLgals8/Scr for 24 h. Then, they were cultured in basal media at 1% 02. After 24 h, caspase activity and mitochondrial superoxide levels were quantified. To detect activation status of pSTAT1/STAT1 by immunoblot, cells were exposed to 8 h of hypoxia.
(§3) In IL-6/sIL-6R+hypoxia experiments, a human recombinant IL-6/IL-6R alpha protein chimera (25 ng/ml, Millipore) was administered at 70-80% confluency for 48 h in complete media along with vehicle control (DMSO, Sigma-41639). BRD2889 (1 uM) vs. vehicle control were added, as indicated, and placed into a hypoxia chamber for 24 h. The hypoxia chamber (modular incubator chamber) was obtained from Billups-Rothenberg Inc. (Del Mar, Calif) and placed in regulated CO2 incubator at 37° C.
Protein stability assay: The proteasome inhibitor MG132 (M7449, Sigma) was stored at −20° C. at a concentration of 10 mM diluted in dimethyl sulfoxide (DMSO). PAECs were exposed to MG132 ([…]) vs. DMSO vehicle control for 2 hr under hypoxia, prior to harvesting of cellular lysate for immunoblotting.
(§4) Immunoblot and densitometry: Cells were lysed in RIPA buffer (Sigma) along with 1× protease inhibitor cocktail (Sigma). Protein lysate was resolved by gradient 4%-15% SDS-PAGE gels and transferred onto a 0.2 μm PVDF membrane (Bio-Rad). Membranes were blocked in 5% non-fat milk in 1×PBST buffer for one hour at room temperature. Later, they were incubated in the presence of the primary antibody overnight at 4° C. and then appropriate HRP-conjugated secondary antibodies (Life Technologies). The following antibodies were used: human LGALS8 (AF1305, RnD Systems), mouse/rat Lgals8 (ab69631, Abcam), pSTAT1 (ab29045, Abcam) and STAT1 (ab47425, Abcam), GSTP1 (ab153949, Abcam), ISCU (14812-1-AP, Prointech), Glutathione (ab19534, Abcam), HIF2A (NB100-122, Novous), α-Tubulin (CP06, Millipore sigma), and ACTB (sc-47778, Santa Cruz). The immunoreactive bands were visualized with the Chemidoc XRS+system (Bio-Rad) using SuperSignal West Femto chemiluminescent substrates (Thermo Fisher Scientific). The images were later quantified using AlphaEaseFC software (Alpha Innotech).

ISCU [3] = test: Immunoblot of ISCU and GSTP1 in PASMCs; assay type: cell-based, human; conditions: BRD2889 1 uM
Method: as §3
as §4, with “The immunoreactive bands were visualized with the Chemidoc XRS+system (Bio-Rad) using SuperSignal West Femto chemiluminescent substrates (Thermo Fisher Scientific).” left out

GST activity = GST activity in PASMCs; assay type: cell-based, human; conditions: IL-6/R + hypoxia, BRD2889 1 uM
Method: as §3

[4] = target: glutathione S-transferase pi 1 (GSTP1) (Homo sapiens, UniProt P09211); conditions: literature report; cited from earlier work
[5] = BRD2889 5 mg/kg i.p. every 5 days
[6] = BRD2889 10 mg/kg vs vehicle, 10 days of treatment
[7] = BRD2889 5 and 10 mg/kg IP every three days

Sequence of glutathione S-transferase pi 1 (GSTP1) (P09211 whole entry, species assumed): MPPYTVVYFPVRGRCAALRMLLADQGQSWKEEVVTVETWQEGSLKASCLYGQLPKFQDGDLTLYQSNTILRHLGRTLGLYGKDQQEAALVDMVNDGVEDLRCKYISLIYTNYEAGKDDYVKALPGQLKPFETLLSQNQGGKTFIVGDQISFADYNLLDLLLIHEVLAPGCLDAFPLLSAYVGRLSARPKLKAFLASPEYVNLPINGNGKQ

Compound: COc1ccc(C#CC2CCCN(C(=O)/C=C/c3cc(OC)c(OC)c(OC)c3)C2=O)cc1 (stereo not shown) [BRD2889]
- number of genes altered by hypoxia but reversed by drug (PAECs): 3830 genes
- Fulton index (RV/LV+S) [1, 5]: reduced
- ISCU in CD31+ endothelium [1, 5]: increased
- arteriolar muscularization [1, 5]: reduced
- cleaved caspase-3 (CC-3) in CD31+ endothelium [1, 5]: decreased
- right ventricular systolic pressure (RVSP) [1, 5]: reduced
- lung GST activity ([1]; BRD2889 5 mg/kg i.p. every 5 days, final 2 weeks in normoxia): decreased
- left ventricular function (LVPW thickness, LVEF, LVFS) ([1]; BRD2889 vs vehicle): did not exhibit altered left ventricular function
- ascites ([1]; three SU5416-hypoxic rats treated with drug): accumulation of mild ascites
- lung total GST enzyme activity (hypoxic IL-6 Tg mice; BRD2889 5 mg/kg (low) and 10 mg/kg (high) IP every three days, 14 days hypoxia): dose-dependent reduction
- heart rate (hypoxic IL-6 Tg mice; [6]): No differences
- left ventricular function (fractional shortening, ejection fraction, PW thickness) (hypoxic IL-6 Tg mice; [6]): No differences
- Fulton index (hypoxic IL-6 Tg mice; [7]): dose-dependent reduction
- ISCU in arterioles, particularly CD31+ endothelium (in situ staining) (hypoxic IL-6 Tg mice; [7]): rescued
- RVSP (hypoxic IL-6 Tg mice; [7]): dose-dependent reduction
- arteriolar muscularization (hypoxic IL-6 Tg mice; [7]): reduced
- cleaved caspase-3 (CC-3) in whole vessels (hypoxic IL-6 Tg mice; [7]): decreased
- GSTP1 expression (ISCU [2]; PAECs, IL-6/R + hypoxia): without altering
- ISCU expression (immunoblot) (ISCU [2]; PAECs, IL-6/sIL-6R + hypoxia, BRD2889 1 uM): reversed the decrease
- GSTP1 expression (ISCU [2]; hypoxic PAECs): did not affect
- ISCU protein levels (ISCU [2]; hypoxic PAECs): reversed hypoxia-dependent reduction
- GSTP1 protein expression (ISCU [3]; IL-6/R + hypoxia): did not affect
- ISCU protein (ISCU [3]; IL-6/sIL-6R + hypoxia): failed to rescue
- GST activity (GST activity): did not affect
- inhibition of GSTP1 [4]: known to inhibit
